Measured values taken from patent publication US12213970B2, “Pyridinyl sulfonamide derivatives, pharmaceutical compositions and uses thereof” (Boehringer Ingelheim International GmbH, priority 2018, dated 2025).
Where a name gives a salt, the structure may show the parent alone. Read-outs that look alike come from different tables or passages of the source.

Tests used:
[1] = target: T1, AOC1 (Homo sapiens, UniProt P19801); assay: AOC1 biochemical assay (Amplex Red)
T1 construct: purchased R&D Systems 8297-AO-010
T1 sequence (P19801 20-751): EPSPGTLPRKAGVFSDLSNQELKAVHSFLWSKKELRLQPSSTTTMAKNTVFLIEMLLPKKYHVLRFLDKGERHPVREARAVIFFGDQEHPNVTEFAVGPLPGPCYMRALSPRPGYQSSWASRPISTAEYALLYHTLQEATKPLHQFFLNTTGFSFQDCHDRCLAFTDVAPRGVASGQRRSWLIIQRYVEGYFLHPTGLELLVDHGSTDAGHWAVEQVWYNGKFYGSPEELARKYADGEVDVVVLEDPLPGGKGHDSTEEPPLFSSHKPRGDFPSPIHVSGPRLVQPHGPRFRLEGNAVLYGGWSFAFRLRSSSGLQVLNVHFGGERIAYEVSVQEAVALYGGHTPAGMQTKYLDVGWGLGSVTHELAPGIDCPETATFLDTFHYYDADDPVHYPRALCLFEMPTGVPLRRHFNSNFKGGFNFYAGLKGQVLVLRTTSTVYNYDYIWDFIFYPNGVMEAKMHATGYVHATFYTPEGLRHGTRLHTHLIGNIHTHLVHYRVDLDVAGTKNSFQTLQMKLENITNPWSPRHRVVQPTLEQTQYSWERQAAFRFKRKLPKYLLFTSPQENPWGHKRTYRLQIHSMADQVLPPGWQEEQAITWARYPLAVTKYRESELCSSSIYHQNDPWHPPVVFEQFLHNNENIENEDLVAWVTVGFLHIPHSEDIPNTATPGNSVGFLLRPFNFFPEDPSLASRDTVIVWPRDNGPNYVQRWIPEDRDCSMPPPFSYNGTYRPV
Description: The Amplex® Red Assay (available from Thermo Fisher Scientific) provides a sensitive method for the detection of H2O2 generated during enzymatic reactions like the amine oxidation catalyzed by AOC1. The assay reagent is a colorless substrate (N-acetyl-3,7-dihydroxyphenoxazine) that reacts in a 1:1 stoichiometry with hydrogen peroxide (H2O2) to produce the fluorescent dye resorufin (7-hydroxyphenoxazin-3-one, excitation/emission maxima=570/585 nm).
An aliquot of 3 μL of the compound dilution is added to a 384 well plate (Optiplate, PS, flat bottom F, black, PERKIN ELMER, #6007270) in a DMSO concentration of 6.6%.
An AOC1 enzyme aliquot (#8297-AO-010, R&D Systems) is thawed on ice, diluted in reaction buffer and added in a volume of 7 μL to the wells to give a final assay concentration of 1 ng/well. After incubation of inhibitor and enzyme for 30 minutes at 37° C., the enzymatic reaction is started with the addition of 10 μL of Amplex® Red reaction mix (final assay concentration: 100 mM sodiumphosphate, 120 μM Amplex® Red reagent (#A22177 Molecular Probes), 1.5 U/mL Horseradish Peroxidase (#P8375 Sigma-Aldrich), 200 μM putrescine (#P7505 Sigma-Alrdich), 0.05% Pluronic F-127 (#P3000MP Sigma-Aldrich), pH 7.4, 37° C.).
After an incubation for 30 minutes at 37° C. the turnover of the substrate is determined directly (or after the addition of an excess of an amine-oxidase inhibitor) with a fluorescence reader (Ex 540 nm/Em 590 nm) like Envision 2104 Multilabel Reader (PERKIN ELMER).

[2] = target: T2, human AOC3 enzyme (recombinant CHO cells) (Homo sapiens, UniProt Q16853); assay: AOC3 biochemical assay (MAO-Glo), human enzyme
T2 construct: expressed in transfected cells; host or cells: CHO cells
T2 sequence (Q16853 1-763): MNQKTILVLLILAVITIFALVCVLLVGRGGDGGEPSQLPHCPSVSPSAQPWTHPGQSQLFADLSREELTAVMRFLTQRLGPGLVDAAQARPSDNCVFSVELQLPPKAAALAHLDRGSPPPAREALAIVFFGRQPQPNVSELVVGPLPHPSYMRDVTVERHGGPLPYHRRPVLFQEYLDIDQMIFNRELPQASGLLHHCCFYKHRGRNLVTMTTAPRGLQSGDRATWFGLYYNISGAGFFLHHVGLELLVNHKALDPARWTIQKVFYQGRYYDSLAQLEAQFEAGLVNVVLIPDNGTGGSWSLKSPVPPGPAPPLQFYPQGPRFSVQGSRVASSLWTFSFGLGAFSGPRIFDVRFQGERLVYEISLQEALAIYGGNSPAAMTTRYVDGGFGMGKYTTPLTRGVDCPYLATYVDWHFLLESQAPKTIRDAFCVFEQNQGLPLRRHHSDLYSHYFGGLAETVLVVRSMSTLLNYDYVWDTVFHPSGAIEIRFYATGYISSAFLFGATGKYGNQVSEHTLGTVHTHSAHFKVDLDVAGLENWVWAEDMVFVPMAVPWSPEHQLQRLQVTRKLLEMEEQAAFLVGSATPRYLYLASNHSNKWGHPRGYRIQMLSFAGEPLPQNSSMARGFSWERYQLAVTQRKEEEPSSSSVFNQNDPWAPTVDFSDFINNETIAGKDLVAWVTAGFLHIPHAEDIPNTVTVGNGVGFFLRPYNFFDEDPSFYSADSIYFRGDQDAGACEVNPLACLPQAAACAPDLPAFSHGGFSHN
Text: The MAO-Glo™ Assay (commercially available from PROMEGA, #V1402) provides a sensitive method for the measurement of monoamine oxidase (MAO) activity (Valley, M. P. et al., 2006, Anal. Biochem. 359: 238-246) from a variety of tissues, biofluids or recombinant expressed or purified enzymes. As substrate a derivate of the beetle luciferin ((4S)-4,5-dihydro-2-(6-hydroxybenzothiazolyl)-4-thiazole-carboxylic acid) is used, which is oxidized at a primary amine moiety. After a spontaneous elimination and a catalyzed esterase reaction, the turnover of luciferin by the luciferase is recorded as a signal of AOC3 activity.
An aliquot of 3 μL of the compound dilution is added to a 384 well plate (Optiplate, PS, flat bottom, white, PERKIN ELMER, #6007290) with a final DMSO concentration of 6.6%. Recombinant CHO cells, overexpressing the human (1500 cells/well), mouse (1000 cells/well) or rat (500 cells/well) AOC3 enzyme are diluted in reaction buffer and added in a volume of 15 μL to the wells. After incubation for 20 minutes at 37° C., 2 μL of MAO substrate (dissolved in DMSO at 16 mM, adjusted to assay concentration in reaction buffer to a final assay concentration of 20 μM) is added and further incubated for 60 minutes at 37° C. The turnover of the substrate is determined by the addition of 20 μL of the detection-mix which was generated by the addition of reconstitution buffer with esterase (PROMEGA, #V1402) to the luciferin detection reagent (PROMEGA, #V1402). After an incubation period of 20 minutes, the luminescent signal is measured with Envision 2104 Multilabel Reader (PERKIN ELMER).

[3] = comparison table, read-out: IC50 AOC3
[4] = comparison table, read-out: IC50 AOC1

Compound | IC50 ([1]; read-out: AOC1 IC50) [nM] | IC50 ([2]; read-out: AOC3 IC50) [nM] | IC50 ([1]; read-out: IC50 AOC1) [nM] | IC50 [2, 3] [nM] | IC50 [1, 4] [nM]
COC1CN(S(=O)(=O)c2ccc(OC/C(=C\F)CN)nc2)C1 [Example 33] | 1140 | 3 |  |  | 
COC(=O)CC1CCN(S(=O)(=O)c2ccc(OC/C(=C\F)CN)nc2)CC1 [Example 32] | 5450 | 4 |  |  | 
NC/C(=C/F)COc1ccc(S(=O)(=O)N2CCC[C@@H]2C(N)=O)cn1 [Example 18] | 1220 | 50 |  |  | 
NC/C(=C/F)COc1ccc(S(=O)(=O)N2CC[C@H](C(=O)N3CCOCC3)C2)cn1 [Example 21] | 4090 | 28 |  |  | 
CNC(=O)[C@@H]1CCCN1S(=O)(=O)c1ccc(OC/C(=C\F)CN)nc1 [Example 8] | 497 | 48 |  |  | 
CC1(C(=O)NCCF)CCN(S(=O)(=O)c2ccc(OC/C(=C\F)CN)nc2)CC1 [Example 53] | 14600 | 17 |  |  | 
NC/C(=C/F)COc1cnc(N2CC[C@H](O)C2)nc1 [Z isomer of example 6 of WO 2018/027892, reference compound] |  |  | 70 | 7 | 
NC/C(=C/F)COc1ccc(S(=O)(=O)N2CCC(CC(=O)O)CC2)cn1 [Example 44, trifluoroacetate] | > 50000 | 110 |  |  | 
NC/C(=C/F)COc1ccc(S(=O)(=O)N2CCC(C(=O)N3CCC3)CC2)cn1 [Example 10] | 3180 | 22 |  |  | 
CC1(O)CCN(S(=O)(=O)c2ccc(OC/C(=C\F)CN)nc2)CC1 [Example 41] | 133 | 10 |  |  | 
COC1CCN(S(=O)(=O)c2ccc(OC/C(=C\F)CN)nc2)CC1 [Example 40] | 781 | 4 |  |  | 
CNC(=O)[C@@H]1CCN(S(=O)(=O)c2ccc(OC/C(=C\F)CN)nc2)C1 [Example 14] | 2150 |  |  |  | 
NC/C(=C/F)COc1ccc(S(=O)(=O)N2CC[C@H](O)C2)cc1 [Reference compound B, reference compound] |  |  |  | 6 | 1210
NC/C(=C/F)COc1ccc(S(=O)(=O)N2C[C@@H]3[C@H](C2)[C@H]3C(=O)O)cn1 [Example 45, trans-3-[6-((Z)-2-Aminomethyl-3-fluoro-allyloxy)-pyridine-3-sulfonyl]-3-aza-bicyclo[3.1.0]hexane-6-carboxylic acid trifluoroacetate] | 37600 | 67 |  |  | 
CNC(=O)[C@@H]1[C@@H]2CN(S(=O)(=O)c3ccc(OC/C(=C\F)CN)nc3)C[C@@H]21 [Example 5] | 1220 | 27 |  |  | 
NC/C(=C/F)COc1cnc(N2CCC(O)CC2)nc1 [reference compound] |  |  |  | 4 | 66
CCNC(=O)CC1CCN(S(=O)(=O)c2ccc(OC/C(=C\F)CN)nc2)CC1 [Example 30] | 8900 | 15 |  |  | 
CC1(C(=O)O)CCN(S(=O)(=O)c2ccc(OC/C(=C\F)CN)nc2)CC1 [Example 47] | > 50000 | 548 |  |  | 
CN(C)S(=O)(=O)c1ccc(OC/C(=C\F)CN)cc1 [Compound 10 of WO 2013/163675, reference compound] |  |  |  | 2 | 963
CNC(=O)[C@H]1[C@@H]2CN(S(=O)(=O)c3ccc(OC/C(=C\F)CN)nc3)C[C@@H]21 [Example 27] | 1260 | 5 |  |  | 
CNC(=O)[C@H]1CCN(S(=O)(=O)c2ccc(OC/C(=C\F)CN)nc2)C1 [Example 11] | 2550 |  |  |  | 

More lines, now with the values ahead:

IC50 ([1]; read-out: AOC1 IC50) [nM] | IC50 ([2]; read-out: AOC3 IC50) [nM] | IC50 ([1]; read-out: IC50 AOC1) [nM] | IC50 [2, 3] [nM] | IC50 [1, 4] [nM] | Compound
2360 | 6 |  |  |  | NC/C(=C/F)COc1ccc(S(=O)(=O)N2CCC(O)(C(F)(F)F)CC2)cn1 [Example 42]
10300 | 12 |  |  |  | CC(F)(F)CNC(=O)CC1CCN(S(=O)(=O)c2ccc(OC/C(=C\F)CN)nc2)CC1 [Example 51]
4550 | 15 |  |  |  | CC(=O)N1CC(C2CCN(S(=O)(=O)c3ccc(OC/C(=C\F)CN)nc3)CC2)C1 [Example 9]
4640 | 9 |  |  |  | CCNC(=O)C1CCN(S(=O)(=O)c2ccc(OC/C(=C\F)CN)nc2)CC1 [Example 15]
15100 | 17 |  |  |  | NC/C(=C/F)COc1ccc(S(=O)(=O)N2CCC(CC(=O)NCCO)CC2)cn1 [Example 52]
1360 | 6 |  |  |  | NC/C(=C/F)COc1ccc(S(=O)(=O)N2CC(C(N)=O)C2)cn1 [Example 20]
> 50000 | 28 |  |  |  | CCNC(=O)C1(C)CCN(S(=O)(=O)c2ccc(OC/C(=C\F)CN)nc2)CC1 [Example 23]
553 | 8 |  |  |  | CC1(C(N)=O)CCN(S(=O)(=O)c2ccc(OC/C(=C\F)CN)nc2)CC1 [Example 49]
1840 | 3 |  |  |  | COC(=O)[C@H]1[C@@H]2CN(S(=O)(=O)c3ccc(OC/C(=C\F)CN)nc3)C[C@@H]21 [Example 35, trans-3-[6-((Z)-2-Aminomethyl-3-fluoro-allyloxy)-pyridine-3-sulfonyl]-3-aza-bicyclo[3.1.0]hexane-6-carboxylic acid methyl ester trifluoroacetate]
441 | 9 |  |  |  | CC1(O)CN(S(=O)(=O)c2ccc(OC/C(=C\F)CN)nc2)C1 [Example 16]
6250 | 16 |  |  |  | CN(C)C(=O)C1CCN(S(=O)(=O)c2ccc(OC/C(=C\F)CN)nc2)CC1 [Example 17]
1000 |  |  |  |  | CC(=O)N[C@@H]1CCCN(S(=O)(=O)c2ccc(OC/C(=C\F)CN)nc2)C1 [Example 24]
678 |  |  |  |  | CC(=O)N[C@H]1CCCN(S(=O)(=O)c2ccc(OC/C(=C\F)CN)nc2)C1 [Example 6]
